± gives the expanded uncertainty stated by the source.
Experiments:
[1] = refractive index (other wavelength) (dimensionless); conditions: 101 kPa, Liquid, Wavelength=632.8 nm, Standard Abbe refractometry
[2] = refractive index (other wavelength) (dimensionless); xn = mol fraction of the nth substance listed; conditions: 101 kPa, Liquid, Wavelength=632.8 nm, Standard Abbe refractometry, x2 = 0

## N#Cc1ccccc1 [benzonitrile]
[1]; 278.24 K
  refractive index: 1.5324 ± 0.0008
[1]; 279.25 K
  refractive index: 1.5319 ± 0.0008
[1]; 281.33 K
  refractive index: 1.5308 ± 0.0008
[1]; 282.96 K
  refractive index: 1.5301 ± 0.0008
[1]; 284.3 K
  refractive index: 1.5294 ± 0.0008
[1]; 285.43 K
  refractive index: 1.5288 ± 0.0008

## CCCCCCCCC [nonane]
[1]; 278.08 K
  refractive index: 1.4111 ± 0.0008
[1]; 279.19 K
  refractive index: 1.4106 ± 0.0008
[1]; 280.4 K
  refractive index: 1.4101 ± 0.0008
[1]; 281.48 K
  refractive index: 1.4095 ± 0.0008
[1]; 282.59 K
  refractive index: 1.409 ± 0.0008
[1]; 283.65 K
  refractive index: 1.4085 ± 0.0008
[1]; 284.91 K
  refractive index: 1.4079 ± 0.0008

## CCCCCCCCC [nonane] + N#Cc1ccccc1
[2]; 278.08 K
  refractive index: 1.4111 ± 0.0008
[2]; 279.19 K
  refractive index: 1.4106 ± 0.0008
[2]; 280.4 K
  refractive index: 1.4101 ± 0.0008
[2]; 281.48 K
  refractive index: 1.4095 ± 0.0008
[2]; 282.59 K
  refractive index: 1.409 ± 0.0008
[2]; 283.65 K
  refractive index: 1.4085 ± 0.0008
[2]; 284.91 K
  refractive index: 1.4079 ± 0.0008
